Here are results for 13 compounds from patent publication US8129366B2, “VLA-4 inhibitory drug” (Daiichi Sankyo Company, Limited, priority 2005, dated 2012).

The nature of data set [1]: Solubility test in first and second liquid of the Japanese Pharmacopoeia. Particulars: Solubility.
Procedure: The solubilities of the substance under test in the first liquid (JP1, pH=1.2) of the Japanese Pharmacopoeia and the second liquid (JP2, pH=6.8) of the Japanese Pharmacopoeia, were evaluated.
The target in a further data set is T1, hα4 and β1 integrins (Homo sapiens, UniProt P05556+P13612).
T1 construct: expressed in transfected cells; host or cells: CHO cells
The data set can be described thus: In vitro inhibition of binding between CHO cells expressing hα4 and β1 integrins and Eu3+-hVCAM-1 D1D7-IgG. The following applies: for Ki: CHO cells expressing hα4 and β1 integrins, Eu3+-hVCAM-1 D1D7-IgG ligand, without HSA; for IC50: in the presence of 3% human serum albumin (HSA final concentration 3%). The method, boiled down: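 Transfected CHO cells, cultured 2 days, were incubated with compound and Eu³⁺-hVCAM-1 D1D7-IgG (diluted to 2 nM) for 1 h at room temperature. Buffer was 25 mM HEPES pH 7.5 with 1 mM Ca²⁺, 1 mM Mg²⁺, 4 mM Mn²⁺ and 0.1% BSA, ±3% HSA final. Cells were washed at 4 °C and read by DELFIA time-resolved fluorescence; Ki was derived from IC50 using the Scatchard Kd.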

The mark [2] stands for this setting: first liquid of the Japanese Pharmacopoeia (JP1), pH 1.2, simulated gastric fluid, First liquid of Japanese Pharmacopoeia (μg/mL), JP1, pH=1.2.
[3] abbreviates: second liquid of the Japanese Pharmacopoeia (JP2), pH 6.8, aqueous buffer, Second liquid of Japanese Pharmacopoeia (μg/mL), JP2, pH=6.8.

≈ marks a conversion by molar mass, not a printed value. Where only a bound is given, the exact number is not on record here.

T1 sequence (P13612 34-1032): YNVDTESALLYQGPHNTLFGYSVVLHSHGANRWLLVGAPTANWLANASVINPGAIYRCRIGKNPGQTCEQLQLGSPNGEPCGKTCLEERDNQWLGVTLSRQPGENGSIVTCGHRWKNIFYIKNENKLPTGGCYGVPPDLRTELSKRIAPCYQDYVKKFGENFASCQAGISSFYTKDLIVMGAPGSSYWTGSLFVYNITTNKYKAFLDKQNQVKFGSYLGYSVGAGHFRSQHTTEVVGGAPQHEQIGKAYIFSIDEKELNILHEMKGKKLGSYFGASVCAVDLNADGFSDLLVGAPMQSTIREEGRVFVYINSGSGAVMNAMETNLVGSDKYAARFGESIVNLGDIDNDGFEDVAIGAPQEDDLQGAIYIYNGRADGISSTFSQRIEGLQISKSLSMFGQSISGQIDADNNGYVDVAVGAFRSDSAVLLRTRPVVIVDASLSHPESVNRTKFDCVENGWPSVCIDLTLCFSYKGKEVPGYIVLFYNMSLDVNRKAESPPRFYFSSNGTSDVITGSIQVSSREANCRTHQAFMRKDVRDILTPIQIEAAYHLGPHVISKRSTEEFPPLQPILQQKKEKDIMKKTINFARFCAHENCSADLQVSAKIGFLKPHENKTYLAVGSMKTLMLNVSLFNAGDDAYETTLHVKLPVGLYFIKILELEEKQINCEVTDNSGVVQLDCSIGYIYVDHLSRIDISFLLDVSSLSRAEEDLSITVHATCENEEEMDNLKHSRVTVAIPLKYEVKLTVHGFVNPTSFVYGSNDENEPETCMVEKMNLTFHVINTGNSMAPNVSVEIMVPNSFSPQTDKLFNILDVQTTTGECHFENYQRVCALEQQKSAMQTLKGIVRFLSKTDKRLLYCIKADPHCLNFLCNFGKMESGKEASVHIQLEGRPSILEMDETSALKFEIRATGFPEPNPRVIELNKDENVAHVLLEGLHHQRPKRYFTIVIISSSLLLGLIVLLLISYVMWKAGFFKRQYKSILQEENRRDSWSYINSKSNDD
T1 sequence (P05556 21-798): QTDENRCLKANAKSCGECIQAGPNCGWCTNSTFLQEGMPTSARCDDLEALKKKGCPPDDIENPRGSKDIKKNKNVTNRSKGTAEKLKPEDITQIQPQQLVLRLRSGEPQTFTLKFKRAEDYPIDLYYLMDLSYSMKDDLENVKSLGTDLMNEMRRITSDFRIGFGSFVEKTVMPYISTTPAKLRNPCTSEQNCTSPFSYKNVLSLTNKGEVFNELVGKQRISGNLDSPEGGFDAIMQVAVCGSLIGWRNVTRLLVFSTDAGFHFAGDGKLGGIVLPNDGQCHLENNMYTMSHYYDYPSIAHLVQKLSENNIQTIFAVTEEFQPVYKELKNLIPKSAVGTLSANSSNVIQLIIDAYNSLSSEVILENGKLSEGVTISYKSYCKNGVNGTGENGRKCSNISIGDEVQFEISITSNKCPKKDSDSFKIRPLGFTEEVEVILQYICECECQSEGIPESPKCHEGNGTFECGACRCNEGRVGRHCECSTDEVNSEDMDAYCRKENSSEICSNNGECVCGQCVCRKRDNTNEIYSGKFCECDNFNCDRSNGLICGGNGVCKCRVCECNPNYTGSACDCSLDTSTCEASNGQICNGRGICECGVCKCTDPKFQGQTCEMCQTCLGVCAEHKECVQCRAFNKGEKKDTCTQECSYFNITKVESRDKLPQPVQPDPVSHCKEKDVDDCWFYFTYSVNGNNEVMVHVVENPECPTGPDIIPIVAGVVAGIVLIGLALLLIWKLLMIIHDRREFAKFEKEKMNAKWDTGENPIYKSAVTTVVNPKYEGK

By solubility is commonly meant how much of the substance goes into solution per volume. A lower solubility goes with a poorly soluble substance. As usually defined, the Ki is a dissociation constant, usually derived from enzyme kinetics or from competition with a known ligand. A higher Ki goes with weaker binding. What is called IC50 is the concentration that inhibits the measured activity by half. In the case of `CO[C@H]1CN([C@H]2C[C@@H](CO[C@H]3CC[C@H](C(=O)O)CC3)N(C(=O)Cc3cc(Cl)c(NC(=O)c4cn(C)c5ccccc45)cc3Cl)C2)C[C@@H]1OC` [Example 51, Trans-4-[1-[[2,5-dichloro-4-[(1-methyl-1H-indol-3-ylcarbonyl)amino]phenyl]acetyl]-(4S)-[(3S,4S)-dimethoxypyrrolidin-1-yl]-(2S)-pyrrolidinylmethoxy]cyclohexanecarboxylic acid], the solubility in data set [1] (setting [2]) is 1000 µg/mL (≈ 1400 µM). The compound also yielded a solubility in data set [1] (setting [3]) of 1000 µg/mL (≈ 1400 µM). In addition, on hα4 and β1 integrins, the Ki was 5.8 nM and the IC50 worked out at 18 nM.

In the case of `O=C(Nc1cc(F)c(CC(=O)N2C[C@@H](N3CC(N4CCOCC4)C3)C[C@H]2CO[C@H]2CC[C@H](C(=O)O)CC2)cc1Cl)c1csc2ccccc12` [Example 27, Trans-4-[1-[[4-[(benzo[b]thiophen-3-ylcarbonyl)amino]-5-chloro-2-fluorophenyl]acetyl]-(4S)-[3-(4-morpholinyl)azetidin-1-yl]-(2S)-pyrrolidinylmethoxy]cyclohexanecarboxylic acid], the solubility in data set [1] (setting [2]) was 1000 µg/mL (≈ 1400 µM). In data set [1] (setting [3]), this compound displayed a solubility of 1000 µg/mL (≈ 1400 µM). At hα4 and β1 integrins, the affinity corresponds to a Ki of 3.8 nM and the IC50 came out at 43 nM.

On to `CCOC1CN([C@H]2C[C@@H](CO[C@H]3CC[C@H](C(=O)O)CC3)N(C(=O)Cc3cc(Cl)c(NC(=O)c4cn(C)c5ccccc45)cc3Cl)C2)C1` [Example 20, Trans-4-[1-[[2,5-dichloro-4-[(1-methyl-1H-indol-3-ylcarbonyl)amino]phenyl]acetyl]-(4S)-(3-ethoxyazetidin-1-yl)-(2S)-pyrrolidinylmethoxy]cyclohexanecarboxylic acid], for which, in data set [1] (setting [2]), the solubility is above 2000 µg/mL. Further, the solubility in data set [1] (setting [3]) worked out at 1920 µg/mL (≈ 2800 µM). Further, at hα4 and β1 integrins, the Ki turned out to be 3.9 nM and the half-maximal inhibitory concentration (IC50) turned out to be 40 nM.

As to `COC1CCN([C@H]2C[C@@H](CO[C@H]3CC[C@H](C(=O)O)CC3)N(C(=O)Cc3cc(Cl)c(NC(=O)c4csc5ccccc45)cc3F)C2)CC1` [Example 103, Trans-4-[1-[[4-[(benzo[b]thiophen-3-ylcarbonyl)amino]-5-chloro-2-fluorophenyl]acetyl]-(4S)-(4-methoxypiperidin-1-yl)-(2S)-pyrrolidinylmethoxy]cyclohexanecarboxylic acid], the solubility in data set [1] (setting [2]) was above 2000 µg/mL; in data set [1] (setting [3]), 1360 µg/mL (≈ 1990 µM). Besides, on hα4 and β1 integrins, affinity was put at a Ki of 0.32 nM. The IC50 on hα4 and β1 integrins came out at 2.2 nM.

Regarding `C[C@@H]1CN([C@H]2C[C@@H](CO[C@H]3CC[C@H](C(=O)O)CC3)N(C(=O)Cc3ccc(NC(=O)c4coc5ccccc45)c(Cl)c3)C2)C[C@H](C)O1` [Example 87, Trans-4-[1-[[4-[(benzo[b]furan-3-ylcarbonyl)amino]-3-chlorophenyl]acetyl]-(4S)-(cis-2,6-dimethylmorpholin-4-yl)-(2S)-pyrrolidinylmethoxy]cyclohexanecarboxylic acid], in data set [1] (setting [2]), the concentration in solution (solubility) came to 1200 µg/mL (≈ 1840 µM). Moreover, the solubility in data set [1] (setting [3]) stood at 1200 µg/mL (≈ 1840 µM). In addition, on hα4 and β1 integrins, the Ki was 0.95 nM and the IC50 is 8.1 nM.

Compound `C[C@@H]1CN([C@H]2C[C@@H](CO[C@H]3CC[C@H](C(=O)O)CC3)N(C(=O)Cc3cc(Cl)c(NC(=O)c4cn(C)c5ccccc45)cc3F)C2)C[C@H](C)N1CCF` [Example 147, Trans-4-[1-[[5-chloro-2-fluoro-4-[(1-methyl-1H-indol-3-ylcarbonyl)amino]phenyl]acetyl]-(4S)-[cis-2,6-dimethyl-1-(2-fluoroethyl)piperazin-4-yl]-(2S)-pyrrolidinylmethoxy]cyclohexanecarboxylic acid] returned a solubility in data set [1] (setting [2]) of 1400 µg/mL (≈ 1920 µM). Also, the solubility in data set [1] (setting [3]) amounted to 1400 µg/mL (≈ 1920 µM). At hα4 and β1 integrins, the Ki amounted to 3.2 nM and the IC50 is 12 nM.

In turn, `CO[C@@H]1CCN([C@H]2C[C@@H](CO[C@H]3CC[C@H](C(=O)O)CC3)N(C(=O)Cc3cc(Cl)c(NC(=O)c4cn(C)c5ccccc45)cc3Cl)C2)C1` [Example 33, Trans-4-[1-[[2,5-dichloro-4-[(1-methyl-1H-indol-3-ylcarbonyl)amino]phenyl]acetyl]-(4S)-[(3R)-methoxypyrrolidin-1-yl]-(2S)-pyrrolidinylmethoxy]cyclohexanecarboxylic acid] displayed a solubility in data set [1] (setting [2]) above 2000 µg/mL. This compound came in with a solubility in data set [1] (setting [3]) above 2000 µg/mL. At hα4 and β1 integrins, the affinity, expressed as Ki, was 5.6 nM and the IC50 was 20 nM.

For the compound `Cn1cc(C(=O)Nc2cc(Cl)c(CC(=O)N3C[C@@H](N4CC(C)(C)C4)C[C@H]3CO[C@H]3CC[C@H](C(=O)O)CC3)cc2Cl)c2ccccc21` [Example 15, Trans-4-[1-[[2,5-dichloro-4-[(1-methyl-1H-indol-3-ylcarbonyl)amino]phenyl]acetyl]-(4S)-(3,3-dimethylazetidin-1-yl)-(2S)-pyrrolidinylmethoxy]cyclohexanecarboxylic acid], the solubility in data set [1] (setting [2]) and in data set [1] (setting [3]) was 1100 µg/mL (≈ 1640 µM) throughout.

For `Cn1cc(C(=O)Nc2cc(F)c(CC(=O)N3C[C@@H](N4CC(C)(C)C4)C[C@H]3CO[C@H]3CC[C@H](C(=O)O)CC3)cc2Cl)c2ccccc21` [Example 14, Trans-4-[1-[[5-chloro-2-fluoro-4-[(1-methyl-1H-indol-3-ylcarbonyl)amino]phenyl]acetyl]-(4S)-(3,3-dimethylazetidin-1-yl)-(2S)-pyrrolidinylmethoxy]cyclohexanecarboxylic acid], the solubility in data set [1] (setting [2]) is 1100 µg/mL (≈ 1680 µM); in data set [1] (setting [3]) it was 1000 µg/mL (≈ 1530 µM).

On to `CO[C@H]1CN([C@H]2C[C@@H](CO[C@H]3CC[C@H](C(=O)O)CC3)N(C(=O)Cc3ccc(NC(=O)c4nn(C)c5ccccc45)c(Cl)c3)C2)C[C@H]1OC` [Example 62, Trans-4-[1-[[4-[(1-methyl-1H-indazol-3-ylcarbonyl)amino]-3-chlorophenyl]acetyl]-(4S)-(cis-3,4-dimethoxypyrrolidin-1-yl)-(2S)-pyrrolidinylmethoxy]cyclohexanecarboxylic acid], for which, on hα4 and β1 integrins, the Ki was 3.2 nM and the half-inhibitory concentration (IC50) came to 10 nM.

Consider `C[C@@H]1CN([C@H]2C[C@@H](CO[C@H]3CC[C@H](C(=O)O)CC3)N(C(=O)Cc3cc(Cl)c(NC(=O)c4c[nH]c5ccccc45)cc3F)C2)C[C@H](C)O1` [Example 90, Trans-4-[1-[[5-chloro-2-fluoro-4-[(1H-indol-3-ylcarbonyl)amino]phenyl]acetyl]-(4S)-(cis-2,6-dimethylmorpholin-4-yl)-(2S)-pyrrolidinylmethoxy]cyclohexanecarboxylic acid], for which, on hα4 and β1 integrins, the Ki was 1.2 nM and the IC50 is 2.4 nM.

On to `O=C(Nc1cc(Cl)c(CC(=O)N2C[C@@H](N3CCN(C4CC4)CC3)C[C@H]2CO[C@H]2CC[C@H](C(=O)O)CC2)cc1Cl)c1csc2ccccc12` [Example 138, Trans-4-[1-[[4-[(benzo[b]thiophen-3-ylcarbonyl)amino]-2,5-dichlorophenyl]acetyl]-(4S)-(4-cyclopropylpiperazin-1-yl)-(2S)-pyrrolidinylmethoxy]cyclohexanecarboxylic acid], for which, on hα4 and β1 integrins, the Ki worked out at 0.91 nM and the IC50 is 7.7 nM.

As to `Cn1cc(C(=O)Nc2cc(Cl)c(CC(=O)N3C[C@@H](N4CC5CC4CO5)C[C@H]3CO[C@H]3CC[C@H](C(=O)O)CC3)cc2Cl)c2ccccc21` (stereo partly drawn) [Example 162, Trans-4-[1-[[2,5-dichloro-4-[1-methyl-1H-indol-3-ylcarbonylamino]phenyl]acetyl]-(4S)-[(1S,4S)-2-oxa-5-azabicyclo[2.2.1]heptan-5-yl]-(2S)-pyrrolidinylmethoxy]cyclohexanecarboxylic acid], at hα4 and β1 integrins, the Ki worked out at 6.5 nM and the IC50 was 49 nM.
